Tests used:
Type in all cases: in vivo
[1] = tested on: blackgrass (Alopecurus myosuroides); experiment: Test A postemergence, blackgrass; settings: approximately 10 d
Text: (§1) Seeds of plant species selected from barnyardgrass (Echinochloa crus-galli), kochia (Kochia scoparia), ragweed (common ragweed, Ambrosia elatior), ryegrass, Italian (Italian ryegrass, Lolium multiflorum), foxtail, green (green foxtail, Setaria viridis), and pigweed (Amaranthus retroflexus) were planted into a blend of loam soil and sand and treated preemergence with a directed soil spray using test chemicals formulated in a non-phytotoxic solvent mixture which included a surfactant. At the same time, plants selected from these weed species and also wheat (Triticum aestivum), corn (Zea mays), blackgrass (Alopecurus myosuroides), and galium (catchweed bedstraw, Galium aparine) were planted in pots containing the same blend of loam soil and sand and treated with postemergence applications of test chemicals formulated in the same manner. Plants ranged in height from 2 to 10 cm and were in the one- to two-leaf stage for the postemergence treatment. Treated plants and untreated controls were maintained in a greenhouse for approximately 10 d, after which time all treated plants were compared to untreated controls and visually evaluated for injury. Plant response ratings, summarized in Table A, are based on a 0 to 100 scale where 0 is no effect and 100 is complete control. A dash (-) response means no test result.

[2] = tested on: pigweed (Amaranthus retroflexus); experiment: Test A postemergence, pigweed; settings: approximately 10 d
Text: as §1

[3] = tested on: ryegrass, Italian (Italian ryegrass, Lolium multiflorum); experiment: Test A postemergence, Italian ryegrass; settings: approximately 10 d
Text: as §1

kochia (Kochia scoparia) [4] = experiment: Test A postemergence, kochia; settings: approximately 10 d
Text: as §1

corn (Zea mays) = experiment: Test A postemergence, corn; settings: approximately 10 d
Text: as §1

Foxtail, Giant [5] = experiment: Test A preemergence, giant foxtail; settings: approximately 10 d
kochia (Kochia scoparia) [6] = experiment: Test A preemergence, kochia; settings: approximately 10 d
Text: as §1

Foxtail, Giant [7] = experiment: Test A postemergence, giant foxtail; settings: approximately 10 d
[8] = tested on: ryegrass, Italian (Italian ryegrass, Lolium multiflorum); experiment: Test A preemergence, Italian ryegrass; settings: approximately 10 d
Text: as §1

[9] = tested on: sedge, umbrella (small-flower umbrella sedge, Cyperus difformis); experiment: Test B flooded paddy test, umbrella sedge; settings: 250 g ai/ha, Flood (paddy water), 13 to 15 d
Protocol: (§2) Plant species in the flooded paddy test selected from rice (Oryza sativa), sedge, umbrella (small-flower umbrella sedge, Cyperus difformis), ducksalad (Heteranthera limosa), and barnyardgrass (Echinochloa crus-galli) were grown to the 2-leaf stage for testing. At time of treatment, test pots were flooded to 3 cm above the soil surface, treated by application of test compounds directly to the paddy water, and then maintained at that water depth for the duration of the test. Treated plants and controls were maintained in a greenhouse for 13 to 15 d, after which time all species were compared to controls and visually evaluated. Plant response ratings, summarized in Table B, are based on a scale of 0 to 100 where 0 is no effect and 100 is complete control. A dash (-) response means no test result.

[10] = tested on: galium (catchweed bedstraw, Galium aparine); experiment: Test A postemergence, galium; settings: approximately 10 d
Text: as §1

[11] = tested on: ducksalad (Heteranthera limosa); experiment: Test B flooded paddy test, ducksalad; settings: 250 g ai/ha, Flood (paddy water), 13 to 15 d
Protocol: as §2

[12] = tested on: wheat (Triticum aestivum); experiment: Test A postemergence, wheat; settings: approximately 10 d
Text: as §1

[13] = tested on: barnyardgrass (Echinochloa crus-galli); experiment: Test A postemergence, barnyardgrass; settings: approximately 10 d
Text: as §1

[14] = tested on: barnyardgrass (Echinochloa crus-galli); experiment: Test A preemergence, barnyardgrass; settings: approximately 10 d
Text: as §1

rice (Oryza sativa) = experiment: Test B flooded paddy test, rice; settings: 250 g ai/ha, Flood (paddy water), 13 to 15 d
Protocol: as §2

[15] = tested on: ragweed (common ragweed, Ambrosia elatior); experiment: Test A postemergence, ragweed; settings: approximately 10 d
Text: as §1

[16] = tested on: ragweed (common ragweed, Ambrosia elatior); experiment: Test A preemergence, ragweed; settings: approximately 10 d
Text: as §1

[17] = tested on: barnyardgrass (Echinochloa crus-galli); experiment: Test B flooded paddy test, barnyardgrass; settings: 250 g ai/ha, Flood (paddy water), 13 to 15 d
Protocol: as §2

[18] = tested on: pigweed (Amaranthus retroflexus); experiment: Test A preemergence, pigweed; settings: approximately 10 d
Text: as §1

Row | SMILES | Plant response rating (0 to 100 scale, 0 is no effect, 100 is complete control) ([1]; 31 g ai/ha) | Plant response rating (0 to 100 scale, 0 is no effect, 100 is complete control) ([1]; 125 g ai/ha) | Plant response rating (0 to 100 scale, 0 is no effect, 100 is complete control) ([2]; 31 g ai/ha) | Plant response rating (0 to 100 scale, 0 is no effect, 100 is complete control) ([2]; 125 g ai/ha) | Plant response rating (0 to 100 scale, 0 is no effect, 100 is complete control) ([3]; 31 g ai/ha) | Plant response rating (0 to 100 scale, 0 is no effect, 100 is complete control) ([3]; 125 g ai/ha) | Plant response rating (0 to 100 scale, 0 is no effect, 100 is complete control) (kochia (Kochia scoparia) [4]; 31 g ai/ha) | Plant response rating (0 to 100 scale, 0 is no effect, 100 is complete control) (kochia (Kochia scoparia) [4]; 125 g ai/ha) | Plant response rating (0 to 100 scale, 0 is no effect, 100 is complete control) (corn (Zea mays); 31 g ai/ha) | Plant response rating (0 to 100 scale, 0 is no effect, 100 is complete control) (corn (Zea mays); 125 g ai/ha) | Plant response rating (0 to 100 scale, 0 is no effect, 100 is complete control) (Foxtail, Giant [5]; 31 g ai/ha) | Plant response rating (0 to 100 scale, 0 is no effect, 100 is complete control) (Foxtail, Giant [5]; 125 g ai/ha) | Plant response rating (0 to 100 scale, 0 is no effect, 100 is complete control) (kochia (Kochia scoparia) [6]; 31 g ai/ha) | Plant response rating (0 to 100 scale, 0 is no effect, 100 is complete control) (kochia (Kochia scoparia) [6]; 125 g ai/ha) | Plant response rating (0 to 100 scale, 0 is no effect, 100 is complete control) (Foxtail, Giant [7]; 31 g ai/ha) | Plant response rating (0 to 100 scale, 0 is no effect, 100 is complete control) (Foxtail, Giant [7]; 125 g ai/ha) | Plant response rating (0 to 100 scale, 0 is no effect, 100 is complete control) ([8]; 31 g ai/ha) | Plant response rating (0 to 100 scale, 0 is no effect, 100 is complete control) ([8]; 125 g ai/ha) | Plant response rating (scale of 0 to 100, 0 is no effect, 100 is complete control) [9] | Plant response rating (0 to 100 scale, 0 is no effect, 100 is complete control) ([10]; 31 g ai/ha) | further results
1 | CN(C)N=C1[C@H](C(=O)Nc2cccc(F)c2F)[C@@H](c2ccc(C(F)(F)F)cc2)CN1C (relative stereo) [Compound 4] | 30 | 50 | 0 | 70 | 0 | 20 | 0 | 40 | 0 | 20 | 50 | 90 | 0 | 30 | 0 | 80 | 0 | 10 | 0 | 60 | Plant response rating (0 to 100 scale, 0 is no effect, 100 is complete control) ([10]; 125 g ai/ha): 70; Plant response rating (scale of 0 to 100, 0 is no effect, 100 is complete control) [11]: 75; Plant response rating (0 to 100 scale, 0 is no effect, 100 is complete control) ([12]; 31 g ai/ha): 0; Plant response rating (0 to 100 scale, 0 is no effect, 100 is complete control) ([12]; 125 g ai/ha): 20; Plant response rating (0 to 100 scale, 0 is no effect, 100 is complete control) ([13]; 31 g ai/ha): 0; Plant response rating (0 to 100 scale, 0 is no effect, 100 is complete control) ([13]; 125 g ai/ha): 60; Plant response rating (0 to 100 scale, 0 is no effect, 100 is complete control) ([14]; 31 g ai/ha): 50; Plant response rating (0 to 100 scale, 0 is no effect, 100 is complete control) ([14]; 125 g ai/ha): 90; Plant response rating (scale of 0 to 100, 0 is no effect, 100 is complete control) (rice (Oryza sativa)): 0; Plant response rating (0 to 100 scale, 0 is no effect, 100 is complete control) ([15]; 31 g ai/ha): 0; Plant response rating (0 to 100 scale, 0 is no effect, 100 is complete control) ([15]; 125 g ai/ha): 30; Plant response rating (0 to 100 scale, 0 is no effect, 100 is complete control) ([16]; 31 g ai/ha): 0; Plant response rating (0 to 100 scale, 0 is no effect, 100 is complete control) ([16]; 125 g ai/ha): 0; Plant response rating (scale of 0 to 100, 0 is no effect, 100 is complete control) [17]: 55; Plant response rating (0 to 100 scale, 0 is no effect, 100 is complete control) ([18]; 31 g ai/ha): 0; Plant response rating (0 to 100 scale, 0 is no effect, 100 is complete control) ([18]; 125 g ai/ha): 60
2 | CN1C[C@H](c2ccc(C(F)(F)F)cc2)[C@@H](C(=O)Nc2cccc(F)c2F)C1=NN1CCOCC1 (relative stereo) [Compound 7] | 30 | 30 | 0 | 60 | 10 | 30 | 0 | 60 | 0 | 0 | 50 | 90 | 0 | 20 | 0 | 50 | 0 | 0 | 0 | 60 | Plant response rating (0 to 100 scale, 0 is no effect, 100 is complete control) ([10]; 125 g ai/ha): 70; Plant response rating (scale of 0 to 100, 0 is no effect, 100 is complete control) [11]: 45; Plant response rating (0 to 100 scale, 0 is no effect, 100 is complete control) ([12]; 31 g ai/ha): 0; Plant response rating (0 to 100 scale, 0 is no effect, 100 is complete control) ([12]; 125 g ai/ha): 10; Plant response rating (0 to 100 scale, 0 is no effect, 100 is complete control) ([13]; 31 g ai/ha): 0; Plant response rating (0 to 100 scale, 0 is no effect, 100 is complete control) ([13]; 125 g ai/ha): 50; Plant response rating (0 to 100 scale, 0 is no effect, 100 is complete control) ([14]; 31 g ai/ha): 10; Plant response rating (0 to 100 scale, 0 is no effect, 100 is complete control) ([14]; 125 g ai/ha): 50; Plant response rating (scale of 0 to 100, 0 is no effect, 100 is complete control) (rice (Oryza sativa)): 0; Plant response rating (0 to 100 scale, 0 is no effect, 100 is complete control) ([15]; 31 g ai/ha): 0; Plant response rating (0 to 100 scale, 0 is no effect, 100 is complete control) ([15]; 125 g ai/ha): 50; Plant response rating (0 to 100 scale, 0 is no effect, 100 is complete control) ([16]; 31 g ai/ha): 0; Plant response rating (0 to 100 scale, 0 is no effect, 100 is complete control) ([16]; 125 g ai/ha): 0; Plant response rating (scale of 0 to 100, 0 is no effect, 100 is complete control) [17]: 10; Plant response rating (0 to 100 scale, 0 is no effect, 100 is complete control) ([18]; 31 g ai/ha): 0; Plant response rating (0 to 100 scale, 0 is no effect, 100 is complete control) ([18]; 125 g ai/ha): 10

From US11357230B2, “Herbicidal amides” (FMC Corporation, priority 2017, dated 2022)
